In PMC7900953, “Location of a single histidine within peptide carriers increases mRNA delivery” (The Journal of Gene Medicine, 2020):

Assays:
MDA‐MB‐231 cells [1] = assay: In vitro transfection of luciferase-expressing mRNA with HK polyplexes; assay type: cell-based; conditions: for Effectiveness as carrier of mRNA: luciferase mRNA polyplexes; for Luciferase activity, RLU/µg-Protein: polyplex in Opti-MEM on cells 4 h, then DMEM/10% serum, luciferase 24 h later, mean ± SD
Protocol: Several HK peptides were examined for their ability to carry a luciferase‐expressing mRNA (CleanCap Firefly Luciferase mRNA; Trilink Biotechnologies, Inc., San Diego, CA, USA) into MDA‐MB‐231 cells (America Type Tissue Culture, Manassas, VA, USA). In brief, 3 × 10^4 cells were plated into a 24‐well plate containing 500 μl of Dulbecco’s modified Eagle’s medium (DMEM) and 10% fetal bovine serum (Thermo Fisher Scientific, Waltham, MA, USA). After 24 hours, when the cells were 60–80% confluent, the media in each well was changed to Opti‐MEM (Thermo Fisher Scientific). To prepare HK polyplexes, mRNA (1 μg) in 50 μl of Opti‐MEM was briefly mixed well with one of the HK peptides (4–12 μg) and maintained at room temperature for 30 minutes. This polyplex was then added dropwise to the cells. After 4 hours, the Opti‐MEM media was removed and replaced with 0.5 ml of DMEM/10% serum. Twenty‐four hours later, the cells were lysed, and luciferase activity (Promega Corporation, Madison, WI, USA) was measured. ^28 Also, a negative control (mRNA without the carrier) was added to the cells and luciferase activity measured 24 hours later.
FIGURE 1 Comparison of H3K(+H)4b and H3K4b peptides as carriers of mRNA. To form polyplexes, the mRNA (1 μg) was mixed with three different ratios of the HK (4, 8 and 12 μg) polymer for 30 minutes. The mRNA polyplexes were then added to the cells as described in the Materials and methods, and luciferase activity was measured 24 hours later. ***p < 0.001; ****p < 0.0001, H3K(+H)4b versus H3K4b
FIGURE 6 Comparing H3K(+H)4b and other four‐branched HK peptides for mRNA transfection. After polyplexes were formed with HK peptides (4 μg) and luciferase‐expressing mRNA (1 μg) and added to cells, luciferase activity was measured […] later. These HK peptides contained an additional histidine in the second motif.
FIGURE 7 Comparison of H3K(+H)4b with branched peptides without an additional histidine in the second motif. Polyplexes were formed with mRNA (1 μg) and various HK peptides (4 μg) and, after their addition to cells, luciferase activity was determined 24 h later. H3K(1+H)4b and H3K(3+H)4b peptides have an extra histidine in the first and third domains, respectively. H3K(1,3+H)4b has two additional histidines: one in the first and the other third motif. […] Unlike H3K(+H)4b, the predominant repeating motif of H2K4b in its branch is ‐HHK. ***p < 0.001, H3K(+H)4b versus H2K4b or H3K(1,3+H)4b; ****p < 0.0001, H3K(+H)4b versus H3K(1+H)4b or H3K(3+H)4b motifs
To prepare HK polyplexes, luciferase-expressing mRNA (1 µg) in 50 µl of Opti-MEM was briefly mixed with one of the HK peptides (4, 8, or 12 µg) and maintained at room temperature for 30 min. This polyplex was then added dropwise to the MDA-MB-231 cells and after four h, the Opti-MEM media was removed and replaced with DMEM/10% serum. Twenty-four hours later, luciferase activity was measured.

MDA‐MB‐231 cells [2] = assay: mRNA transfection with HK lipopolyplexes (HK peptide + DOTAP liposomes); assay type: cell-based; conditions: HK 4 μg, mRNA 1 μg, DOTAP 1 μg; luciferase 24 h
Protocol: Transfection with HK lipopolyplexes was carried out in a manner similar to that described above, with a few exceptions. In brief, the HK peptide (4 μg) in Opti‐MEM was mixed initially with mRNA (1 μg) for 30 minutes. This was followed by adding the DOTAP cationic liposome (1,2‐dioleoyl‐3‐trimethyl ammonium‐propane; 1 μg; Roche, Basel, Switzerland) for an additional 30 minutes. The Opti‐MEM mixture (50 μl) was then added dropwise to the cells.
FIGURE 8 Comparison of mRNA transfection with DOTAP and several HK peptides. To form lipopolyplexes, the HK peptides (4 μg) in Opti‐MEM were initially mixed with mRNA (1 μg) for 30 minutes. DOTAP liposomes (1 μg) were then added, gently mixed and allowed to stand for an additional 30 min. Polyplexes were prepared as described previously. These complexes in Opti‐MEM (50 μl) were then added to the cells and, 24 hours later, the luciferase activity was measured. *p < 0.05; **p < 0.01; ***p < 0.001
Figure S4. Transfection of mRNA (1 µg) with HK peptides (4 µg) and/or DOTAP liposomes (1 µg). Cells were transfected with mRNA lipoplexes, polyplexes, or lipopolyplexes as described in the Material and Methods section, and twenty-four h later, the luciferase activity was measured. ***, P<0.001; ****, P<0.0001

[3] = Particle size, polydispersity index (PDI) and zeta potential of polyplexes (dynamic light scattering); assay type: physicochemical; conditions: HK peptide (4 μg) + mRNA (1 μg), 25°C; for Zeta potential of polyplex / Size of polyplex: mean ± SD of three measurements; for Size of polyplex: DLS 90°, z‐average; for PDI of polyplex: DLS
Protocol: The size, PDI and zeta potential were determined with the Zetasizer (Malvern, Westborough, MA, USA) and analyzed with Zetasizer, version 6.2 (Malvern). Using dynamic light scattering at a 90° angle, the size of the particles were reported as the z‐average diameter from the intensity‐weighted size distribution. Prior to the measurements, the samples were equilibrated to 25°C for 2 minutes. Each measurement had at least 10 sub‐runs under the automatic mode of the software. The particle size, PDI and zeta potential data point represent the mean ± SD of three measurements. After mixing HK peptides (4 μg) and mRNA (1 μg) in 100 μl of defined media (Opti‐MEM, water, or DMEM/8% FBS) for 30 minutes, 100 μl of additional defined media was added to the polyplex solution (total volume 200 μl) to measure the size and PDI. To determine the zeta potential, 800 μl more of the media was added (total volume 1000 μl), mixed gently and then added to the disposable zeta cell.

[4] = cited from earlier work
[5] = ratio 1:4 (wt:wt; mRNA:polymer; 1 µg mRNA, 4 µg HK)
[6] = ratio 1:8 (wt:wt; mRNA:polymer; 1 µg mRNA, 8 µg HK)
[7] = ratio 1:12 (wt:wt; mRNA:polymer; 1 µg mRNA, 12 µg HK)

Row | Substance | Luciferase expression relative to H3K4b peptide (MDA‐MB‐231 cells [1]; fold greater, ratio 4:1 (HK:mRNA; w:w)) [fold] | Effectiveness as carrier of mRNA (MDA‐MB‐231 cells [1]) | Luciferase activity, RLU/µg-Protein (MDA‐MB‐231 cells [1]; [5]) [RLU/µg-Protein] | Luciferase activity, RLU/µg-Protein (MDA‐MB‐231 cells [1]; [6]) [RLU/µg-Protein] | Luciferase activity, RLU/µg-Protein (MDA‐MB‐231 cells [1]; [7]) [RLU/µg-Protein] | mRNA carrier effectiveness compared with DOTAP liposomes (MDA‐MB‐231 cells [2]) | Zeta potential of polyplex ([3]; DMEM/8%FBS) [mV] | Size of polyplex ([3]; DMEM/8%FBS) [nm] | PDI of polyplex ([3]; DMEM/8%FBS) | Zeta potential of polyplex ([3]; Opti‐MEM) [mV] | Size of polyplex ([3]; Opti‐MEM) | PDI of polyplex ([3]; Opti‐MEM) | Zeta potential of polyplex ([3]; Water) [mV] | Size of polyplex ([3]; Water) [nm] | PDI of polyplex ([3]; Water) | Carrier of siRNA [4]
1 | R = KHHHKHHHKHHHHKHHHK [H3K(+H)4b, four‐branched analogue of H3K4b with one extra histidine in the second ‐HHHK‐ motif] | 10 | effective carriers of mRNA | 1532.9±122.9 | 1656.3±202.5 | 1033.4±197 | significantly better carriers of mRNA than the DOTAP liposomes | −12.7 ± 1.04 | 289 ± 38.2 | 0.307 | 2.92 ± 1.83 | 1,004 ± 61.1 nm | 0.362 | 20.77 ± 1.12 | 234.9 ± 2.7 | 0.212 | effective carriers of siRNA
2 | R = KHHHKHHHKHHHKHHHK [H3K4b, four‐branched histidine‐lysine peptide with four ‐HHHK‐ motifs in each branch] |  | not effective carriers of mRNA | 156.8±41.8 | 62.1±13.2 | 18.1±4.0 |  | −12.1 ± 2.22 | 578 ± 80.5 | 0.421 | −4.20 ± 2.78 | 2,030.7 ± 117.3 nm | 0.466 | 16.47 ± 0.74 | 199.9 ± 0.8 | 0.171 | effective carriers of siRNA
